ChEMBL document CHEMBL1201862, “PubChem BioAssay data set” (2004)
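Protocol summary: plate cells (96-well), add compound at 5 concentrations, incubate 48 h, interpolate endpoints linearly. GI50 = concentration required for 50% inhibition of growth.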 Activity calls are given as the source filed them. Cut-off read from the data, not from the text of the source: active = GI50 up to about 1.1 µM and inactive = higher.

How the values were obtained:
Experiment in all cases: DTP human tumour cell line panel, 48 h
NCI-H226 = tested on: NCI-H226
DMS-273 = tested on: DMS-273
OVCAR-4 = tested on: OVCAR-4
SW-620 = tested on: SW-620
SK-MEL-5 = tested on: SK-MEL-5
HOP-62 = tested on: HOP-62
SNB-75 = tested on: SNB-75
DMS-114 = tested on: DMS-114
HCC 2998 = tested on: HCC 2998
EKVX = tested on: EKVX
RXF 631 = tested on: RXF 631
MOLT-4 = tested on: MOLT-4
NCI-H23 = tested on: NCI-H23
NCI-H460 = tested on: NCI-H460
RXF 393 = tested on: RXF 393
OVCAR-3 = tested on: OVCAR-3
UO-31 = tested on: UO-31
SF-268 = tested on: SF-268
HCT-116 = tested on: HCT-116
CCRF-CEM = tested on: CCRF-CEM
DLD-1 = tested on: DLD-1
OVCAR-8 = tested on: OVCAR-8
SN12C = tested on: SN12C
U-251 = tested on: U-251
HL-60 = tested on: HL-60
786-0 = tested on: 786-0
M14 = tested on: M14
A498 = tested on: A498
A549 = tested on: A549
SK-MEL-2 = tested on: SK-MEL-2
SK-MEL-28 = tested on: SK-MEL-28
SR = tested on: SR
LOX IMVI = tested on: LOX IMVI
ACHN = tested on: ACHN
SNB-19 = tested on: SNB-19
TK-10 = tested on: TK-10
HCT-15 = tested on: HCT-15
UACC-62 = tested on: UACC-62
SF-295 = tested on: SF-295
IGROV-1 = tested on: IGROV-1
XF498 = tested on: XF498
UACC-257 = tested on: UACC-257
COLO 205 = tested on: COLO 205
K562 = tested on: K562
RPMI-8226 = tested on: RPMI-8226
SF-539 = tested on: SF-539
Malme-3M = tested on: Malme-3M
LXFL 529 = tested on: LXFL 529
HT-29 = tested on: HT-29
KM-20L2 = tested on: KM-20L2
SK-OV-3 = tested on: SK-OV-3
HOP-92 = tested on: HOP-92
M19-MEL = tested on: M19-MEL
HOP-18 = tested on: HOP-18
CAKI-1 = tested on: CAKI-1
KM12 = tested on: KM12
NCI-H522 = tested on: NCI-H522
OVCAR-5 = tested on: OVCAR-5
SNB-78 = tested on: SNB-78

In the case of Cc1c(NC(=O)C(C)(C)Br)c(=O)oc2c(C)c3occc(=O)c3cc12, the GI50 (NCI-H226) was 23.3 µM (inactive), the GI50 (DMS-273) was 77.3 µM (inactive) and the GI50 (OVCAR-4) was 49.8 µM (inactive). The GI50 (SW-620) was > 100 µM (inactive), the GI50 (SK-MEL-5) was 29.7 µM (inactive) and the GI50 (HOP-62) was 29.6 µM (inactive). The GI50 (SNB-75) was 35.7 µM (inactive), the GI50 (DMS-114) was 44.1 µM (inactive) and the GI50 (HCC 2998) was > 100 µM (inactive). For the same molecule, the GI50 (EKVX) was > 100 µM (inactive), the GI50 (RXF 631) was 48.1 µM (inactive) and the GI50 (MOLT-4) was 37.1 µM (inactive). The GI50 (NCI-H23) was 81.5 µM (inactive), the GI50 (NCI-H460) was 58.9 µM (inactive) and the GI50 (RXF 393) was 55.3 µM (inactive). The GI50 (OVCAR-3) was > 100 µM (inactive), the GI50 (UO-31) was 21.3 µM (inactive) and the GI50 (SF-268) was 64.9 µM (inactive). For the same molecule, the GI50 (HCT-116) was 59.4 µM (inactive), the GI50 (CCRF-CEM) was 28.2 µM (inactive) and the GI50 (DLD-1) was 59 µM (inactive). The GI50 (OVCAR-8) was 55 µM (inactive), the GI50 (SN12C) was 52.4 µM (inactive) and the GI50 (U-251) was 72.9 µM (inactive). For the same molecule, the GI50 (HL-60) was > 100 µM (inactive), the GI50 (786-0) was 53.7 µM (inactive) and the GI50 (M14) was 48.9 µM (inactive). For the same molecule, the GI50 (A498) was 18.1 µM (inactive), the GI50 (A549) was 68.5 µM (inactive) and the GI50 (SK-MEL-2) was 59.6 µM (inactive). For the same molecule, the GI50 (SK-MEL-28) was > 100 µM (inactive), the GI50 (SR) was 43 µM (inactive) and the GI50 (LOX IMVI) was 76.9 µM (inactive). The GI50 (ACHN) was 45.8 µM (inactive), the GI50 (SNB-19) was 87.9 µM (inactive) and the GI50 (TK-10) was > 100 µM (inactive). For the same molecule, the GI50 (HCT-15) was 96.6 µM, the GI50 (UACC-62) was 67.5 µM (inactive) and the GI50 (SF-295) was 22.9 µM (inactive). The GI50 (IGROV-1) was 57 µM (inactive), the GI50 (XF498) was 27.3 µM (inactive) and the GI50 (UACC-257) was > 100 µM (inactive). The GI50 (COLO 205) was > 100 µM (inactive), the GI50 (K562) was 64.3 µM (inactive) and the GI50 (RPMI-8226) was 45.3 µM (inactive). For the same molecule, the GI50 (SF-539) was 43.7 µM (inactive), the GI50 (Malme-3M) was 31.1 µM (inactive) and the GI50 (LXFL 529) was 42.9 µM (inactive). For the same molecule, the GI50 (HT-29) was 90.2 µM (inactive) and the GI50 (KM-20L2) was 41.4 µM (inactive).

CC(C)OCN1COCN/C1=N/C#N was tested, and the GI50 (NCI-H226) was > 100 µM (inactive), the GI50 (SK-OV-3) was > 100 µM (inactive) and the GI50 (HOP-92) was > 100 µM (inactive). For the same molecule, the GI50 (M19-MEL) was > 100 µM (inactive), the GI50 (DMS-273) was 37.5 µM (inactive) and the GI50 (OVCAR-4) was > 100 µM (inactive). For the same molecule, the GI50 (SW-620) was 18.3 µM (inactive), the GI50 (SK-MEL-5) was > 100 µM (inactive) and the GI50 (HOP-62) was > 100 µM (inactive). For the same molecule, the GI50 (SNB-75) was > 100 µM (inactive), the GI50 (DMS-114) was 58.6 µM (inactive) and the GI50 (HCC 2998) was > 100 µM (inactive). The GI50 (EKVX) was > 100 µM (inactive), the GI50 (RXF 631) was > 100 µM (inactive) and the GI50 (MOLT-4) was > 100 µM (inactive). The GI50 (NCI-H23) was > 100 µM (inactive), the GI50 (NCI-H460) was > 100 µM (inactive) and the GI50 (RXF 393) was > 100 µM (inactive). For the same molecule, the GI50 (OVCAR-3) was > 100 µM (inactive), the GI50 (UO-31) was > 100 µM (inactive) and the GI50 (SF-268) was > 100 µM (inactive). For the same molecule, the GI50 (HCT-116) was > 100 µM (inactive), the GI50 (HOP-18) was > 100 µM (inactive) and the GI50 (DLD-1) was 26.4 µM (inactive). For the same molecule, the GI50 (OVCAR-8) was > 100 µM (inactive), the GI50 (SN12C) was > 100 µM (inactive) and the GI50 (U-251) was 42.2 µM (inactive). The GI50 (HL-60) was > 100 µM (inactive), the GI50 (786-0) was 98.6 µM (inactive) and the GI50 (CAKI-1) was > 100 µM (inactive). For the same molecule, the GI50 (KM12) was > 100 µM (inactive), the GI50 (M14) was > 100 µM (inactive) and the GI50 (A498) was > 100 µM (inactive). For the same molecule, the GI50 (A549) was > 100 µM (inactive), the GI50 (SK-MEL-2) was > 100 µM (inactive) and the GI50 (SK-MEL-28) was > 100 µM (inactive). For the same molecule, the GI50 (SR) was > 100 µM (inactive), the GI50 (ACHN) was > 100 µM (inactive) and the GI50 (SNB-19) was > 100 µM (inactive). For the same molecule, the GI50 (TK-10) was > 100 µM (inactive), the GI50 (HCT-15) was 17.7 µM and the GI50 (UACC-62) was > 100 µM (inactive). The GI50 (SF-295) was > 100 µM (inactive), the GI50 (IGROV-1) was > 100 µM (inactive) and the GI50 (NCI-H522) was > 100 µM (inactive). For the same molecule, the GI50 (UACC-257) was > 100 µM (inactive), the GI50 (COLO 205) was 20.8 µM (inactive) and the GI50 (K562) was > 100 µM (inactive). The GI50 (OVCAR-5) was > 100 µM (inactive), the GI50 (SF-539) was > 100 µM (inactive) and the GI50 (Malme-3M) was > 100 µM (inactive). The GI50 (LXFL 529) was > 100 µM (inactive), the GI50 (HT-29) was 78.3 µM (inactive) and the GI50 (KM-20L2) was > 100 µM (inactive).

In the case of CC(=O)OC1CCn2nnc(CO)c21 (centres undefined), the GI50 (NCI-H226) was > 100 µM (inactive), the GI50 (SK-OV-3) was > 100 µM (inactive) and the GI50 (HOP-92) was > 100 µM (inactive). For the same molecule, the GI50 (M19-MEL) was > 100 µM (inactive), the GI50 (DMS-273) was > 100 µM (inactive) and the GI50 (OVCAR-4) was > 100 µM (inactive). For the same molecule, the GI50 (SW-620) was > 100 µM (inactive), the GI50 (SK-MEL-5) was > 100 µM (inactive) and the GI50 (SNB-78) was > 100 µM (inactive). The GI50 (SNB-75) was 23.8 µM (inactive), the GI50 (DMS-114) was > 100 µM (inactive) and the GI50 (HCC 2998) was > 100 µM (inactive). The GI50 (EKVX) was > 100 µM (inactive), the GI50 (MOLT-4) was > 100 µM (inactive) and the GI50 (NCI-H23) was > 100 µM (inactive). For the same molecule, the GI50 (NCI-H460) was > 100 µM (inactive), the GI50 (RXF 393) was > 100 µM (inactive) and the GI50 (OVCAR-3) was > 100 µM (inactive). For the same molecule, the GI50 (UO-31) was > 100 µM (inactive), the GI50 (HCT-116) was > 100 µM (inactive) and the GI50 (HOP-18) was > 100 µM (inactive). The GI50 (DLD-1) was > 100 µM (inactive), the GI50 (OVCAR-8) was > 100 µM (inactive) and the GI50 (SN12C) was > 100 µM (inactive). The GI50 (U-251) was > 100 µM (inactive), the GI50 (786-0) was > 100 µM (inactive) and the GI50 (CAKI-1) was > 100 µM (inactive). For the same molecule, the GI50 (KM12) was > 100 µM (inactive), the GI50 (A549) was > 100 µM (inactive) and the GI50 (SK-MEL-2) was > 100 µM (inactive). The GI50 (SK-MEL-28) was > 100 µM (inactive), the GI50 (SR) was > 100 µM (inactive) and the GI50 (SNB-19) was > 100 µM (inactive). The GI50 (TK-10) was > 100 µM (inactive), the GI50 (HCT-15) was over 100 µM and the GI50 (UACC-62) was > 100 µM (inactive). The GI50 (SF-295) was > 100 µM (inactive), the GI50 (IGROV-1) was > 100 µM (inactive) and the GI50 (NCI-H522) was > 100 µM (inactive). For the same molecule, the GI50 (XF498) was > 100 µM (inactive), the GI50 (UACC-257) was > 100 µM (inactive) and the GI50 (COLO 205) was > 100 µM (inactive). For the same molecule, the GI50 (K562) was > 100 µM (inactive), the GI50 (OVCAR-5) was > 100 µM (inactive) and the GI50 (RPMI-8226) was > 100 µM (inactive). For the same molecule, the GI50 (SF-539) was 58.5 µM (inactive), the GI50 (Malme-3M) was > 100 µM (inactive) and the GI50 (LXFL 529) was > 100 µM (inactive). For the same molecule, the GI50 (HT-29) was > 100 µM (inactive) and the GI50 (KM-20L2) was > 100 µM (inactive).
